# Data taken from US7531529B2, “Imidazole derivatives” (Roche Palo Alto LLC, priority 2003, dated 2009).
# Molecular target: T1, human mGlu5a receptor (Homo sapiens, UniProt P41594)
# T1 construct: expressed in transfected cells; host or cells: EBNA cells (transient transfection); cell membrane homogenates
# Assay: [3H]MPEP competition binding on membranes of EBNA cells transfected with human mGlu5a receptor
# Procedure: For binding experiments, cDNA encoding human mGlu5a receptor was transiently transfected into EBNA cells using a procedure described by Schlaeger and Christensen [Cytotechnology 15:1-13 (1998)]. Cell membrane homogenates were stored at −80° C. until the day of assay where upon they were thawed and resuspended and polytronised in 15 mM Tris-HCl, 120 mM NaCl, 100 mM KCl, 25 mM CaCl2, 25 mM MgCl2 binding buffer at pH 7.4 to a final assay concentration of 20 μg protein/ well.
# Saturation isotherms were determined by addition of twelve [^3H]MPEP concentrations (0.04-100 nM) to these membranes (in a total volume of 200 μl) for 1 h at 4° C. Competition experiments were performed with a fixed concentration of [^3H]MPEP (2 nM) and IC50 values of test compounds evaluated using 11 concentrations (0.3-10,000 nM). Incubations were performed for 1 h at 4° C.
# At the end of the incubation, membranes were filtered onto unifilter (96-well white microplate with bonded GF/C filter preincubated 1 h in 0.1% PEI in wash buffer, Packard BioScience, Meriden, Conn.) with a Filtermate 96 harvester (Packard BioScience) and washed 3 times with cold 50 mM Tris-HCl, pH 7.4 buffer. Nonspecific binding was measured in the presence of 10 μM MPEP. The radioactivity on the filter was counted (3 min) on a Packard Top-count microplate scintillation counter with quenching correction after addition of 45 μl of microscint 40 (Canberra Packard S.A., Zürich, Switzerland) and shaking for 20 min.
# The Ki value is defined by the following formula: Ki=IC50/[1+L/Kd] in which the IC50 values are those concentrations of the compounds tested which cause 50% inhibition of the competing radioligand ([^3H]MPEP). L is the concentration of radioligand used in the binding experiment and the Kd value of the radioligand is empirically determined for each batch of membranes prepared.
# T1 sequence (P41594 21-1180 isoform P41594-2 limits assumed): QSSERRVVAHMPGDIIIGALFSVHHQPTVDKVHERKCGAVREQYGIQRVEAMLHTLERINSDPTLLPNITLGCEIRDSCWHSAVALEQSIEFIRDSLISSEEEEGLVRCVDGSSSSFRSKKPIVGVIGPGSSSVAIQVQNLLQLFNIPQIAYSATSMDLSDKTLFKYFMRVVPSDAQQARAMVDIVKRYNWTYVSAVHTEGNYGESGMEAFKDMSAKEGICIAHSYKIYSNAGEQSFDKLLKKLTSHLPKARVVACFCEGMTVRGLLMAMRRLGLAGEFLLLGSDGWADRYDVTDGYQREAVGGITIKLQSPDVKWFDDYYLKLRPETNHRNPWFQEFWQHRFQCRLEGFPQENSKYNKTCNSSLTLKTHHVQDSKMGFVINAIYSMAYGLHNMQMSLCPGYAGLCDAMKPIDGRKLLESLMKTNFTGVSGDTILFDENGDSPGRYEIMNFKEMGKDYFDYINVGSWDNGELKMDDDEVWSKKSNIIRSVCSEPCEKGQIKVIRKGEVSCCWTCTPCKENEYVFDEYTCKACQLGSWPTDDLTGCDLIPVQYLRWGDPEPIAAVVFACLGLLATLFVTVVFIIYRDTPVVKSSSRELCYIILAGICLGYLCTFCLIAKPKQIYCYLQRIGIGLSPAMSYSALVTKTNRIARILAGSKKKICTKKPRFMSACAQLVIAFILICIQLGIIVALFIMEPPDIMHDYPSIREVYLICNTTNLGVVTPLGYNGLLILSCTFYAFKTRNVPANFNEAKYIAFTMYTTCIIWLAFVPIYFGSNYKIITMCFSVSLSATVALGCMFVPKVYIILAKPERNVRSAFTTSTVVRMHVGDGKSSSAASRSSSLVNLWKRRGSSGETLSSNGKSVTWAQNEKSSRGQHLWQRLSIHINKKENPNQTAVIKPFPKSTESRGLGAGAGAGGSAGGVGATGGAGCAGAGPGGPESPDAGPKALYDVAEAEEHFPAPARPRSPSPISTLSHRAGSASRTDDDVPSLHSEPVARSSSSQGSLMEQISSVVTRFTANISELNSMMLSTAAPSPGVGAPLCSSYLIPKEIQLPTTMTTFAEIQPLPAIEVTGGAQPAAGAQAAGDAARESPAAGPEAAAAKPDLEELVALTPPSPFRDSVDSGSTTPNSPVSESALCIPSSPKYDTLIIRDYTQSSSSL
row,Ki,SMILES
1,44 nM,"Cc1nc(C#Cc2ccnc(C#N)c2)cn1-c1ccc(F)cc1 [Example 10, 4-[1-(4-Fluoro-phenyl)-2-methyl-1H-imidazol-4-ylethynyl]-pyridine-2-carbonitrile]"
2,24 nM,"Cc1nc(C#Cc2ccnc(Cl)c2)cn1-c1ccc(Cl)c(Cl)c1 [Example 8, 2-Chloro-4-[1-(3,4-dichloro-phenyl)-2-methyl-1H-imidazol-4-ylethynyl]-pyridine]"
3,24 nM,"Cc1nc(C#Cc2ccnc(Cl)c2)cn1-c1ccc(C2CC2)nc1 [Example 33, 5-[4-(2-Chloro-pyridin-4-ylethynyl)-2-methyl-imidazol-1-yl]-2-cyclopropyl-pyridine]"
4,69 nM,"Cc1nc(C#Cc2ccnc(C#N)c2)cn1-c1ccc(Cl)nc1 [Example 31, 4-[1-(6-Chloro-pyridin-3-yl)-2-methyl-1H-imidazol-4-ylethynyl]-pyridine-2-carbonitrile]"
5,15 nM,"Cc1ccc(-n2cc(C#Cc3ccnc(Cl)c3)nc2C)cc1 [Example 20, 2-Chloro-4-[1-(4-methyl-phenyl)-2-methyl-1H-imidazol-4-ylethynyl]-pyridine]"
6,26 nM,"COc1ccc(-n2cc(C#Cc3ccnc(Cl)c3)nc2C)cc1 [Example 22, 2-Chloro-4-[1-(4-methoxy-phenyl)-2-methyl-1H-imidazol-4-ylethynyl]-pyridine]"
7,40 nM,"Cc1ccnc(-n2cc(C#Cc3ccnc(Cl)c3)nc2C)n1 [Example 25, 2-[4-(2-Chloro-pyridin-4-ylethynyl)-2-methyl-imidazol-1-yl]-4-methyl-pyrimidine]"
8,63 nM,"Cc1nc(C#Cc2ccnc(Cl)c2)cn1-c1cncc(F)c1 [Example 6, 3-[4-(2-Chloro-pyridin-4-ylethynyl)-2-methyl-imidazol-1-yl]-5-fluoro-pyridine]"
9,36 nM,"Cc1ccc(-n2cc(C#Cc3ccnc(Cl)c3)nc2C)nc1 [Example 30, 2-[4-(2-Chloro-pyridin-4-ylethynyl)-2-methyl-imidazol-1-yl]-5-methyl-pyridine]"
10,21 nM,"Cc1nc(C#Cc2ccnc(Cl)c2)cn1-c1cccc(C(F)(F)F)n1 [Example 5, 2-[4-(2-Chloro-pyridin-4-ylethynyl)-2-methyl-imidazol-1-yl]-6-trifluoromethyl-pyridine]"
11,23 nM,"Cc1nc(C#Cc2ccnc(F)c2)cn1-c1ccc(F)cc1 [Example 2, 2-Fluoro-4-[1-(4-fluoro-phenyl)-2-methyl-1H-imidazol-4-ylethynyl]-pyridine]"
12,12 nM,"COc1ccnc(-n2cc(C#Cc3ccnc(Cl)c3)nc2C)n1 [Example 26, 2-[4-(2-Chloro-pyridin-4-ylethynyl)-2-methyl-imidazol-1-yl]-4-methoxy-pyrimidine]"
13,25 nM,"Cc1cc(-n2cc(C#Cc3ccnc(Cl)c3)nc2C)ccc1F [Example 18, 2-Chloro-4-[1-(4-fluoro-3-methyl-phenyl)-2-methyl-1H-imidazol-4-ylethynyl]-pyridine]"
14,23 nM,"Cc1nc(C#Cc2ccnc(Cl)c2)cn1-c1ccnc(C(F)(F)F)n1 [Example 28, 4-[4-(2-Chloro-pyridin-4-ylethynyl)-2-methyl-imidazol-1-yl]-2-trifluoromethyl-pyrimidine]"
